Test results reported in article PMC9324412 (Viruses, 2022).

test system: HIV-1 pNL4-3 WT; experiment: Late-stage single replication cycle antiviral assay, WT virus; format: cell-based; settings: Human immunodeficiency virus 1, TZM-bl, read-out: WT-IC50 (antiviral activity)

Going from `Cc1nc2ccccc2c(-c2ccc3c(c2)OCCO3)c1C(OC(C)(C)C)C(=O)O` (stereo not drawn) [Compound 2] to `Cc1nc2ccc(Br)cc2c(-c2ccc3c(c2)OCCO3)c1C(OC(C)(C)C)C(=O)O` (stereo not drawn) [Compound 17], the IC50 falls from 700 ± 100 nM to 300 ± 100 nM (2.3-fold).

`Cc1nc2c(Br)cccc2c(-c2ccc3c(c2)OCCO3)c1C(OC(C)(C)C)C(=O)O` (stereo not drawn) [Compound 16ba] gave an IC50 of 600 ± 100 nM.

test system: HIV-1 pNL4-3 A128T IN mutant; experiment: Late-stage single replication cycle antiviral assay, A128T IN mutant virus; format: cell-based; settings: Human immunodeficiency virus 1, TZM-bl, read-out: A128T-IC50 (antiviral activity)

Going from `Cc1nc2ccccc2c(-c2ccc3c(c2)OCCO3)c1C(OC(C)(C)C)C(=O)O` (stereo not drawn) [Compound 2] to `Cc1nc2ccc(Br)cc2c(-c2ccc3c(c2)OCCO3)c1C(OC(C)(C)C)C(=O)O` (stereo not drawn) [Compound 17], the IC50 rises from 1100 ± 200 nM to 10200 ± 2500 nM (9.3-fold). The first is the more potent here.

Work on `Cc1nc2c(Br)cccc2c(-c2ccc3c(c2)OCCO3)c1C(OC(C)(C)C)C(=O)O` (stereo not drawn) [Compound 16ba] yielded an IC50 of 300 ± 100 nM.
